Values after ≈ are worked out from the molar mass of the structure shown. Read-outs that look alike come from different tables or passages of the source.
Key:
[1] = test system: Salmonella typhimurium Ames II Mixed Strains (TA7001-TA7006) and TA98; experiment: Genotoxicity assay (AmesIIb mutagenicity test); type: cell-based; conditions: Salmonella typhimurium; further: key: an AmesIIb score of 1 shows no genotoxicity signals
Outline: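 Ames II fluctuation-type reverse mutation test using Ames II Mixed Strains (equimolar TA7001–TA7006, six base-pair substitutions) plus TA98 (frameshift). Run with and without mammalian metabolic activation across varying compound concentrations; His+ revertants selected on histidine-free medium.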

[2] = Metabolic stability in liver microsomes (intrinsic clearance); type: in vitro ADME; conditions: microsomes
Outline: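 Compound (typically 1 μM) incubated at 37° C with liver microsomes (0.5 mg/ml protein) of selected species, 1 mM NADPH, 1 mM MgCl2, 0.1 M phosphate pH 7.4, sampled 0–60 min. Parent remaining measured by LC-MS/MS; t1/2 from log-linear slope, then Clint in μl/min/mg protein.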

[3] = HTChem stab assay (chemical stability in buffer pH2, pH4 and pH7 vs DMSO reference); type: physicochemical; conditions: 72 h, 50 µM; for Chemical stability data, Buffer pH2: pH 2; for Chemical stability data, Buffer pH4: pH 4; for Chemical stability data, Buffer pH7: pH 7
Outline: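 Compound from 10 mM DMSO stock shaken 72 h at room temperature in Buffer/DMSO (2:1) at pH2 (0.1N HCl), pH4 or pH7 (phosphate), alongside a DMSO control. Samples analysed by LC/UV/MS against the DMSO reference; degradant peaks identified by MS and sample purity reported.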

[4] = test system: Mycobacterium tuberculosis strain H37Rv; experiment: Test 2: MIC determination against M. tuberculosis, resazurin fluorescence; type: cell-based; conditions: Mycobacterium tuberculosis, H37RV, Test 2, M. tuberculosis H37Rv; for MIC90: read-out: Bacterial activity MIC90; for IC50: read-out: Bacterial activity pMIC50 (converted)
[5] = test system: M. tuberculosis H37Rv inside macrophages; conditions: strain M. tuberculosis H37Rv; cited from earlier work
M. tuberculosis = conditions: cited from earlier work
[6] = mouse, pH 7.4, Metabolic Stability Half life (mouse, min.)
[7] = mouse, pH 7.4, mouse liver microsomes, read-out: Metabolic Stability (liver microsome intrinsic clearance) Clearance (mouse, μl/min./mg protein)

With CCc1nc2ncc(C)cn2c1C(=O)NCc1ccc(-c2nc3n(n2)CCC(C(F)(F)F)C3)c(F)c1 (centres unmarked) [Compound 22ab] the “GeneTox AmesIIb Score” value [1] was 1, the half-life at 1 µM [2, 6] was 1.78 h and the microsomal CLint at 1 µM [2, 7] was 13 µL/min/mg. The “Chemical stability data, Vehicle DMSO” value [3] was 98%, the “Chemical stability data, Buffer pH2” value [3] was 97% and the “Chemical stability data, Buffer pH4” value [3] was 97%. For the same compound, the “Chemical stability data, Buffer pH7” value [3] was 98%, the MIC90 [4] was 0.007 µM (≈ 0.00351 µg/mL) and the IC50 [4] was 2290 pM.

In the case of CCc1nc2ncc(C)cn2c1C(=O)NCc1ccc(-c2nc3n(n2)CCC(C(F)(F)F)C3)c(C)c1 (centres unmarked) [Compound 23ab], the “GeneTox AmesIIb Score” value [1] is reported as 1, the half-life at 1 µM [2, 6] is reported as 1.58 h and the microsomal CLint at 1 µM [2, 7] is reported as 14.6 µL/min/mg. The “Chemical stability data, Vehicle DMSO” value [3] was 100%, the “Chemical stability data, Buffer pH2” value [3] was 100% and the “Chemical stability data, Buffer pH4” value [3] was 100%. The “Chemical stability data, Buffer pH7” value [3] was 100%, the MIC90 [4] was 0.022 µM (≈ 0.0109 µg/mL) and the IC50 [4] was 8300 pM.

For CCc1nc2ncc(C)cn2c1C(=O)NCc1ccc(-c2nc3n(n2)CC(C(F)(F)F)CC3)cc1 (centres unmarked) [Compound 24ab], the “GeneTox AmesIIb Score” value [1] was 1, the half-life at 1 µM [2, 6] was > 3 h and the microsomal CLint at 1 µM [2, 7] was < 7.7 µL/min/mg. The “Chemical stability data, Vehicle DMSO” value [3] was 100%, the “Chemical stability data, Buffer pH2” value [3] was 100% and the “Chemical stability data, Buffer pH4” value [3] was 100%. The “Chemical stability data, Buffer pH7” value [3] was 100%, the MIC90 [4] was 0.008 µM (≈ 0.00387 µg/mL) and the IC50 [4] was 3380 pM.

For CCc1nc2ncc(C)cn2c1C(=O)NCc1ccc(-c2nc3n(n2)CCC(C(F)F)C3)cc1 (centres unmarked) [Compound 25ab], the “GeneTox AmesIIb Score” value [1] was 1, the half-life at 1 µM [2, 6] was 2.32 h and the microsomal CLint at 1 µM [2, 7] was 9.97 µL/min/mg. For the same compound, the “Chemical stability data, Vehicle DMSO” value [3] was 100%, the “Chemical stability data, Buffer pH2” value [3] was 100% and the “Chemical stability data, Buffer pH4” value [3] was 100%. For the same compound, the “Chemical stability data, Buffer pH7” value [3] was 100%, the MIC90 [4] was 0.014 µM (≈ 0.00652 µg/mL) and the IC50 [4] was 7460 pM.

In the case of CCc1nc2ncc(C)cn2c1C(=O)NCc1ccc(-c2nc3n(n2)CCC(OC)C3)cc1 (centres unmarked) [Compound 26ab], the “GeneTox AmesIIb Score” value [1] is reported as 1, the half-life at 1 µM [2, 6] is reported as 2.12 h and the microsomal CLint at 1 µM [2, 7] is reported as 10.9 µL/min/mg. The “Chemical stability data, Vehicle DMSO” value [3] was 95%, the “Chemical stability data, Buffer pH2” value [3] was 95% and the “Chemical stability data, Buffer pH4” value [3] was 95%. For the same compound, the “Chemical stability data, Buffer pH7” value [3] was 95%, the MIC90 [4] was 0.143 µM (≈ 0.0637 µg/mL) and the IC50 [4] was 49400 pM.

For CCc1nc2ncc(C)cn2c1C(=O)NCc1ccc(-c2nc3n(n2)CCC(O)C3)cc1 (centres unmarked) [Compound 29ab], the “GeneTox AmesIIb Score” value [1] was 1, the half-life at 1 µM ([2]; human, pH 7.4, Metabolic Stability Half life (human, min.)) was > 3 h and the microsomal CLint at 1 µM ([2]; human, pH 7.4, human liver microsomes, read-out: Metabolic Stability (liver microsome intrinsic clearance) Clearance (human, μl/min./mg protein)) was < 7.7 µL/min/mg. For the same compound, the half-life at 1 µM [2, 6] was > 3 h, the microsomal CLint at 1 µM [2, 7] was < 7.7 µL/min/mg and the “Chemical stability data, Vehicle DMSO” value [3] was 100%. For the same compound, the “Chemical stability data, Buffer pH2” value [3] was 100%, the “Chemical stability data, Buffer pH4” value [3] was 100% and the “Chemical stability data, Buffer pH7” value [3] was 100%. The MIC90 [4] was 3.19 µM (≈ 1.38 µg/mL) and the IC50 [4] was > 500000 pM.

In the case of CCc1nc2ncc(C)cn2c1C(=O)NCc1ccc(-c2nc3n(n2)CCC(OCCOC)C3)cc1 (centres unmarked) [Compound 30ab], the “GeneTox AmesIIb Score” value [1] is reported as 1, the half-life at 1 µM [2, 6] is reported as 2.55 h and the microsomal CLint at 1 µM [2, 7] is reported as 9.08 µL/min/mg. For the same compound, the “Chemical stability data, Vehicle DMSO” value [3] was 98%, the “Chemical stability data, Buffer pH2” value [3] was 98% and the “Chemical stability data, Buffer pH4” value [3] was 98%. For the same compound, the “Chemical stability data, Buffer pH7” value [3] was 98%, the MIC90 [4] was 0.332 µM (≈ 0.163 µg/mL) and the IC50 [4] was 109000 pM.

With CCc1nc2ncc(C)cn2c1C(=O)NCc1ccc(-c2nc3n(n2)CCCC3)cc1 [Compound 31ab] the “GeneTox AmesIIb Score” value [1] was 1, the half-life at 1 µM [2, 6] was > 3 h and the microsomal CLint at 1 µM [2, 7] was < 7.7 µL/min/mg. The “Chemical stability data, Vehicle DMSO” value [3] was 100%, the “Chemical stability data, Buffer pH2” value [3] was 100% and the “Chemical stability data, Buffer pH4” value [3] was 100%. The “Chemical stability data, Buffer pH7” value [3] was 100%, the MIC90 [4] was 0.052 µM (≈ 0.0216 µg/mL) and the IC50 [4] was 16000 pM.

In the case of CCc1nc2nc(C)ccn2c1C(=O)NCc1ccc(-c2cn3c(n2)CC(C(F)(F)F)CC3)cc1 (centres unmarked) [Compound 34ab], the “GeneTox AmesIIb Score” value [1] is reported as 1, the half-life at 1 µM [2, 6] is reported as > 3 h and the microsomal CLint at 1 µM [2, 7] is reported as < 7.7 µL/min/mg. The “Chemical stability data, Vehicle DMSO” value [3] was 94%, the “Chemical stability data, Buffer pH2” value [3] was 94% and the “Chemical stability data, Buffer pH4” value [3] was 95%. For the same compound, the “Chemical stability data, Buffer pH7” value [3] was 93%, the MIC90 [4] was 0.387 µM (≈ 0.187 µg/mL) and the IC50 [4] was 94600 pM.

In the case of CCc1nc2nc(F)ccn2c1C(=O)NCc1ccc(-c2cn3c(n2)CC(C)CC3)cc1 (centres unmarked) [Compound 35ab], the “GeneTox AmesIIb Score” value [1] is reported as 1, the half-life at 1 µM [2, 6] is reported as 0.498 h and the microsomal CLint at 1 µM [2, 7] is reported as 46.4 µL/min/mg. For the same compound, the “Chemical stability data, Vehicle DMSO” value [3] was 100%, the “Chemical stability data, Buffer pH2” value [3] was 100% and the “Chemical stability data, Buffer pH4” value [3] was 99%. The “Chemical stability data, Buffer pH7” value [3] was 98%, the MIC90 [4] was 0.041 µM (≈ 0.0177 µg/mL) and the IC50 [4] was 13400 pM.

For CCc1nc2ccc(Cl)cn2c1C(=O)NCc1ccc(N2CCC(c3ccc(OC(F)(F)F)cc3)CC2)cc1 [Compound Q203], the MIC50 [5] is given as 0.00028 µM (≈ 0.000156 µg/mL), the “activity against MDR tuberculosis” value (M. tuberculosis; MDR tuberculosis) is given as “activity against MDR tuberculosis” and the “activity against replicating and non-replicating bacteria” value (M. tuberculosis; replicating and non-replicating bacteria) is given as “highly active”.

Reference: patent publication US20250034171A1, “IMIDAZOPYRIDINE AMIDES AND RELATED COMPOUNDS FOR USE IN THE TREATMENT OF BACTERIAL INFECTIONS” (priority 2021, published 2025)
